One compound from patent US20050192308A1 (priority 2001, published 2005) can be followed below.

In this assay the target is Mu opioid receptor (Homo sapiens, UniProt P35372).
Mu opioid receptor, sequence (P35372 whole entry): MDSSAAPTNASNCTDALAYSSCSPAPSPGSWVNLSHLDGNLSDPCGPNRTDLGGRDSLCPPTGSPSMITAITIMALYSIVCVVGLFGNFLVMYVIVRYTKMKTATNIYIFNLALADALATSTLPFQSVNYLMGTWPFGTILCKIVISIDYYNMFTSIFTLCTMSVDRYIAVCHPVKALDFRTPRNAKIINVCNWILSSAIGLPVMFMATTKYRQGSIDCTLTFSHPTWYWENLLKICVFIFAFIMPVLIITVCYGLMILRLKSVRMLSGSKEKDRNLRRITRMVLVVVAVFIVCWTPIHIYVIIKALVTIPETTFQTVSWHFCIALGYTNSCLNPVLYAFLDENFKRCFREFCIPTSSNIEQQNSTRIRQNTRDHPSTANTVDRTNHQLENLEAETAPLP

As to `C[C@@H](NC(=O)[C@@H](N)Cc1ccc(O)cc1)C(=O)NCC(=O)N(C)[C@@H](Cc1ccccc1)C(=O)NCCO` [DAMGO Control, DAMGO], the “Functional GTPgS Mu Efficacy % DAMGO” value is listed as 100 ± 0%.
